The record followed here is patent US20260207637A1, “MODULATOR FOR PROMOTING BINDING OF BUTYROPHILIN 3A1/2A1” (priority 2023, published 2026).

Data set [1] in a line: Stability experiment of compounds in human whole blood. The note with it: whole blood (sodium heparin), 37° C., 0-4 h, read-out: T1/2 in human whole blood (converted). The format is in vitro ADME. As for the experimental part: • (1) An appropriate amount of blank whole blood was added into an EP tube containing sodium heparin, then added the working solution of the test substance to a final concentration of 1 μM, and mixed by vortex; • (2) The sample was placed in a water bath at 37° C. with two parallel experiments; for one experiment, the time points were 0 h, 0.5 h, 1 h, 2 h, and 4 h; another experiment was performed to obtain the absolute zero point, which was compared with the 0 h point. • (3) An appropriate amount of sample was taken out from the incubation system, to which 300 μL of internal standard precipitant was added for protein precipitation; (4) all samples were centrifuged at 6° C. for 10 min (15700×g). • (5) 150 μL of the supernatant was taken out, to which 150 μL of water was added, which was mixed by vortex, and analyzed by LC-MS/MS. The stability data of compounds in human whole blood is as follows: […]

The nature of data set [2]: Stability experiment of compounds in human liver microsomes. The format is in vitro ADME. The note with it: NADPH, 37° C., read-out: T1/2 in human liver microsomes. Here is the method:
Compounds were prepared as a 10 mM stock solution with DMSO and then diluted with 80% acetonitrile-water to a 100 μM working solution for later use. Human liver microsomes were obtained from BIOIVT.
(1) The liver microsomes taken out from the refrigerator were placed in a 37° C. water bath thermostatic oscillator, pre-incubated for 5 min, and thawed for later use.
(2) A certain amount of NADPH was weighed and added to an appropriate amount of magnesium chloride solution to dissolve into a 2 mM solution for later use.
(3) A mixed solution of the warm incubation system (containing no β-NADPH) was prepared according to the proportions in the “composition of the experimental warm incubation system” above and dispensed at 165 μL/tubes (45 μL/tube for the negative control group and 120 μL/tube for the positive control group).
(4) For the sample at 0 min: 200 μL of internal standard working precipitant was added and then 30 μL of NADPH solution was added.
(5) For other samples: 135 μL NADPH solution was added to initiate the reaction (45 μL magnesium chloride solution was added for the negative control group), and incubated in a 37° C. water bath for 5, 15, 30, and 60 min (incubated in a 37° C. water bath for 60 min for the negative control group), then 60 μL was sampled and added to 200 µL of precipitant containing internal standard.
(6) For the positive control group: 90 L NADPH solution was added to initiate the reaction, and incubated in a 37° C. water bath for 5, 15 min, then 60 μL was sampled and added to 200 μL of precipitant containing internal standard.
(7) For neat sample: 297 μL of water was pipetted into a tube, 1000 μL of internal standard working solution was added, and 3 μL of test compound working solution was added.
(8) All samples were vortexed and centrifuged.
(9) 150 μL of the supernatant was sampled and added to 150 μL of water, mixed uniformly by vortex, and analyzed by LC-MS/MS. The half-life stability data of human liver microsomes is as follows: […]

Data set [3] is described as follows: Binding rate test of compounds and human plasma protein (equilibrium dialysis). It is filed as in vitro ADME. The conditions noted are these: human plasma, equilibrium dialysis 6 hours, 37° C. Here is the method: (1) The dry dialysis membrane was soaked with ultrapure water for 20 min or more than 20 min, then soaked with 20% ethanol for 30 min to 1 h, and the membrane was rinsed with ultrapure water 2-3 times. Finally, the membrane was soaked with ultrapure water for 20 minutes for later use.
(2) The frozen plasma was thawed in a water bath at 37° C.
(3) The test compound was diluted into plasma preheated to 37° C. at a final concentration of 1 μM, and the final concentration of the control compound warfarin in plasma was 2 μM.
(4) The pre-treated dialysis membrane was assembled into the dialysis plate according to the specification of the product, and 120 μL of the receiving solution (100 mM phosphate buffer solution added 0.002% Tween 80) was added to one side of the permeable membrane in each dialysis well.
(5) 20 μL of each of the final solutions of the test compound and the control compound were added into a 96-well sample plate in duplicate, and the TO sample was obtained, which was stored in a refrigerator at −20° C. Another 20 μL of the above final solution was added to the other side of the membrane in the dialysis device in duplicate, and incubated at 37° C. by shaking at constant temperature for 6 hours.
(6) After 6 hours of incubation, 20 L of each of the dialyzed receiving solution and the administered plasma were weighed to obtain sample B and sample A in duplicate. The corresponding volume of corresponding blank plasma or receiving solution was added to sample B and sample A, respectively, so that the volume ratio of plasma to buffer in each sample well was 1:1. 300 μL of acetonitrile solution containing internal standard was added to all sample wells, and centrifuged after mixed uniformly.
(7) 200 μL of ultrapure water (150 μL for the control group) was added into the corresponding sample wells of the 96-well sample plate, and 300 μL of the supernatant (150 μL for the control group) was added into the sample well; the samples were analyzed after mixed uniformly. The free percentage and recovery rate of the compound in plasma were calculated using the following formula: Plasma protein binding rate (%)=1−free percentage, wherein free percentage (%)=CB/CA
wherein CB is the concentration of the compound in the receiving solution after equilibrium dialysis, CA is the concentration of the compound in the drug-dosed plasma after equilibrium dialysis, and CT0 is the initial concentration of the compound in plasma.

Data set [4] in a line: Pharmacokinetic test in cynomolgus monkeys. The format is in vivo. The note with it: IV 2 mg/kg. Here is the method:
The control compound 2 and compound 19 were formulated into 1 mg/mL solution in 10% DMSO/90% PBS. Cynomolgus monkeys were obtained from Suzhou Leo Bio Technology Co., Ltd. The control compound 2 and compound 19 were administered intravenously at 2 mg/kg, respectively. The blood collected before administration was recorded as zero point. Then 1 mL of blood was collected at eight time points: 0.083, 0.15, 0.5, 1.0 2.0, 4.0, 8.0, and 24.0, respectively. 1 mL of the collected whole blood was placed in a labeled EDTA-2K anticoagulant tube. After gently inverting up and down to fully mix the anticoagulant (EDTA-2K) with the blood, it was immediately placed in wet ice and centrifuged within 30 minutes to separate the plasma. The centrifugation conditions were set to 4° C., 2200 g, and 6 min. The plasma separated after centrifugation was placed in a labeled EP tube, and the content of compound 19 and control compound 2 in the plasma samples at different time points were detected and analyzed. There were 3 male cynomolgus monkeys in each group.

A word on the fraction unbound: it is the share of the substance not bound to proteins or other matrix. Take `C/C(=C\CCP(=O)(N[C@@H](C)C(=O)OCc1ccccc1)Oc1ccccc1)CO` (stereo partly shown) [Control compound 2, reference compound]: the half-life at 1 μM in data set [1] was 2 h. Further, the half-life in data set [2] is 1.4 min. In data set [3], the unbound share (fraction unbound) at 6 h, 1 μM is 0.027. This compound also yielded an AUC0-t/AUC0-inf in data set [4] (average) of 0.974. In addition, the concentration at 5 min in data set [4] (male, cynomolgus monkey, plasma, 5 min, read-out: Plasma concentration of the unchanged drug) was 299 ng/mL. The concentration at 9 min in data set [4] (male, cynomolgus monkey, plasma, 9 min, read-out: Plasma concentration of the unchanged drug) turned out to be 49 ng/mL. The concentration at 30 min in data set [4] (male, cynomolgus monkey, plasma, 30 min, read-out: Plasma concentration of the unchanged drug) stood at 1 ng/mL. Moreover, the concentration at 1 h in data set [4] (male, cynomolgus monkey, plasma, 1 h, read-out: Plasma concentration of the unchanged drug) is 3 ng/mL. In data set [4] (male, cynomolgus monkey, plasma, average, read-out: AUC0-t (AUClast)), the AUC(0-t) was found to be 194 ng·h/mL. The clearance in data set [4] (male, cynomolgus monkey, plasma, average, read-out: Cl (Cl_obs)) worked out at 418 mL/min/kg.
